Results taken from patent US7166598B2, “Piperazine derivatives” (Astellas Pharma Inc., priority 1998, dated 2007).

Compound | melting point [°C]
COc1cc(C[C@@H]2CN(CCCc3cccnc3)CCN2C(=O)c2cc(C(F)(F)F)cc(C(F)(F)F)c2)ccc1F.Cl.Cl | 125 to 130
Cl.Cl.O=C(c1cc(C(F)(F)F)cc(C(F)(F)F)c1)N1CCN(CCCc2cccnc2)C[C@H]1Cc1ccc(Cl)cc1 | 60 to 100
COc1cc(C(=O)N2CCN(Cc3cnn(C)c3)C[C@H]2Cc2ccc(Cl)cc2)cc(C(F)(F)F)c1.Cl | 70 to 100
Cl.Cn1cc(CN2CCN(C(=O)c3cc(C(F)(F)F)cc(C(F)(F)F)c3)[C@H](Cc3ccc(F)cc3)C2)cn1 | 143.3 to 146.4
Cl.Cl.O=C(c1cc(C(F)(F)F)cc(C(F)(F)F)c1)N1CCN(Cc2cccnc2)C[C@H]1Cc1ccc(Cl)c(O)c1 | 187 to 192
COc1cc(C(=O)N2CCN(Cc3cnn(C)c3)C[C@H]2Cc2ccc(Cl)c(O)c2)cc(C(F)(F)F)c1.Cl | 140 to 150
COC[C@@H]1CN(CCN2CCN(C(=O)c3cc(C(F)(F)F)cc(S(=O)(=O)N4CCOCC4)c3)[C@H](Cc3ccc(C)c(O)c3)C2)CCO1.Cl.Cl | 130 to 175
Cc1ccc(C[C@@H]2CN(Cc3cnn(CCO)c3)CCN2C(=O)c2cc(C(F)(F)F)cc(C(F)(F)F)c2)cc1O.Cl | 140 to 156
COC[C@@H]1CN(CCN2CCN(C(=O)c3cc(N(C)C)cc(C(F)(F)F)c3)[C@H](Cc3ccc(C)c(O)c3)C2)CCO1.Cl.Cl | 182 to 186
CSc1cc(C(=O)N2CCN(CCN3C[C@@H](C)O[C@@H](C)C3)C[C@H]2Cc2ccc(Cl)cc2)cc(C(F)(F)F)c1.Cl.Cl | 138.4 to 142.5
C[C@@H]1CN(CCN2CCN(C(=O)c3cc(C(F)(F)F)cc(S(=O)(=O)N(C)C)c3)[C@H](Cc3ccc(Cl)cc3)C2)C[C@H](C)O1.Cl.Cl | 209.6 to 213.7
C[C@@H]1CN(CCN2CCN(C(=O)c3cc(-n4cccc4)cc(C(F)(F)F)c3)[C@H](Cc3ccc(Cl)cc3)C2)C[C@H](C)O1.Cl.Cl | 152.7 to 157.9
C[C@@H]1CN(CCN2CCN(C(=O)c3cc(Cl)cc(C(F)(F)F)c3)[C@H](Cc3ccc(Cl)cc3)C2)C[C@H](C)O1.Cl.Cl | 136.4 to 141
Cc1cc(C(=O)N2CCN(CCN3CCc4ncccc4C3)C[C@H]2Cc2ccc(Cl)cc2)cc(C(F)(F)F)c1.Cl.Cl.Cl | 102.5 to 110.4
Cl.Cl.O=C(c1cc(C(F)(F)F)cc(C(F)(F)F)c1)N1CCN(CCCc2cccnc2)C[C@H]1Cc1ccc(F)cc1 | 110.2 to 117.5
COc1cc(C(=O)N2CCN(CCCc3cccnc3)C[C@H]2Cc2ccc(F)cc2)cc(C(F)(F)F)c1.Cl.Cl | 111.5 to 118.3
Cc1ccc(C[C@@H]2CN(Cc3nc(N(C)C)no3)CCN2C(=O)c2cc(C(F)(F)F)cc(C(F)(F)F)c2)cc1O.Cl.Cl | 140 to 150
CS(=O)(=O)c1cc(C(=O)N2CCN(CCN3CCc4ncccc4C3)C[C@H]2Cc2ccc(C(F)(F)F)cc2)cc(C(F)(F)F)c1.Cl.Cl.Cl | 192 to 197
COC[C@@H]1CN(CCN2CCN(C(=O)c3cc(SC)cc(C(F)(F)F)c3)[C@H](Cc3ccc(F)c(OC)c3)C2)CCO1.Cl.Cl | 132 to 135
COC[C@@H]1CN(CCN2CCN(C(=O)c3cc(C(F)(F)F)cc(S(=O)(=O)C4CCCC4)c3)[C@H](Cc3ccc(Cl)cc3)C2)CCO1.Cl.Cl | > 230
Cl.Cl.O=C(c1cc(C(F)(F)F)cc(C(F)(F)F)c1)N1CCN(Cc2c[nH]c3cccnc23)C[C@H]1Cc1ccc(Cl)c(O)c1 | 208 to 211
Cl.Cl.O=C(c1cc(C(F)(F)F)cc(C(F)(F)F)c1)N1CCN(Cc2cccnc2)C[C@H]1Cc1ccc(F)c(F)c1 | 203 to 208
CC1(C)COCCN1CC#CCN1CCN(C(=O)c2cc(C(F)(F)F)cc(C(F)(F)F)c2)[C@H](Cc2ccc(Cl)cc2)C1.Cl.Cl | 120 to 150
CC1(C)COCCN1CC#CCN1CCN(C(=O)c2cc(C(F)(F)F)cc(C(F)(F)F)c2)[C@H](Cc2ccc(F)cc2)C1.Cl.Cl | 76.5 to 130.6
Cl.Cl.O=C(c1cc(C(F)(F)F)cc(C(F)(F)F)c1)N1CCN(CCN2CCC(F)(F)CC2)C[C@H]1Cc1ccc2ccccc2c1 | > 250
COc1cc(C(=O)N2CCN(Cc3cnn(C)c3)C[C@H]2Cc2c[nH]c3ccccc23)cc(C(F)(F)F)c1.Cl | 210 to 220
COc1cc(C(=O)N2CCN(Cc3cccnc3)C[C@H]2Cc2c[nH]c3ccccc23)cc(C(F)(F)F)c1.Cl.Cl | 190 to 200
COc1cc(C(=O)N2CCN(CCCc3cccnc3)C[C@H]2Cc2c[nH]c3ccccc23)cc(C(F)(F)F)c1.Cl.Cl | 135 to 145
COc1cc(C(=O)N2CCN(CCN3CCc4ncccc4C3)C[C@H]2Cc2c[nH]c3ccccc23)cc(C(F)(F)F)c1.Cl.Cl.Cl | 180 to 190

Results, then the molecule that gave them:

melting point [°C] | Compound
245 to 265 | Cc1ccc(C[C@@H]2CN(CCN3CCc4sccc4C3)CCN2C(=O)c2cc(C(F)(F)F)cc(C(F)(F)F)c2)cc1O.Cl.Cl
82.3 to 88.2 | Cc1cc(C(=O)N2CCN(CCN3C[C@@H](C)O[C@@H](C)C3)C[C@H]2Cc2ccc(Cl)cc2)cc(C(F)(F)F)c1.Cl.Cl
110 to 130 | COC[C@@H]1CN(CC#CCN2CCN(C(=O)c3cc(C(F)(F)F)cc(C(F)(F)F)c3)[C@H](Cc3ccc(C)c(O)c3)C2)CCO1.Cl.Cl
130 to 138 | COC[C@@H]1CN(CCN2CCN(C(=O)c3cc(C(F)(F)F)cc(C(F)(F)F)c3)[C@H](Cc3ccc(C(F)(F)F)cc3)C2)C[C@H](COC)O1.Cl.Cl
95 to 105 | COC[C@@H]1C[C@@H](OC)CN1CCN1CCN(C(=O)c2cc(C(F)(F)F)cc(C(F)(F)F)c2)[C@H](Cc2ccc(Cl)c(O)c2)C1.Cl.Cl
203 to 208 | CO[C@H]1CN(CCN2CCN(C(=O)c3cc(C(F)(F)F)cc(C(F)(F)F)c3)[C@H](Cc3ccc(C(F)(F)F)cc3)C2)C[C@@H]1OC.Cl.Cl
154 to 159 | Cl.Cl.O=C(c1cc(C(F)(F)F)cc(C(F)(F)F)c1)N1CCN(CCN2C[C@H](O)[C@@H](O)C2)C[C@H]1Cc1ccc(C(F)(F)F)cc1
135 to 145 | C[C@@H]1CN(CCN2CCN(C(=O)c3cc(-c4ccncc4)cc(C(F)(F)F)c3)[C@H](Cc3ccc(C(F)(F)F)cc3)C2)C[C@H](C)O1.Cl.Cl.Cl
148 to 153 | COC[C@@H]1CN(CCN2CCN(C(=O)c3cc(Cl)cc(C(F)(F)F)c3)[C@H](Cc3ccc(Cl)cc3)C2)CCO1.Cl.Cl
170 to 195 | C[C@@H]1CN(CCN2CCN(C(=O)c3cc(C(F)(F)F)cc(C(F)(F)F)c3)[C@H](Cc3ccc(F)c(O)c3)C2)C[C@H](C)O1.Cl.Cl
110 to 130 | CC1(C)COCCN1CC#CCN1CCN(C(=O)c2cc(C(F)(F)F)cc(C(F)(F)F)c2)[C@H](Cc2ccc(C(F)(F)F)cc2)C1.Cl.Cl
174 to 180 | Cl.Cl.Cl.O=C(c1cc(C(F)(F)F)cc(C(F)(F)F)c1)N1CCN(CCN2CCc3ncccc3C2)C[C@H]1Cc1ccc(C(F)(F)F)cc1
109.5 to 119.2 | COC[C@@H]1CN(CCN2CCN(C(=O)c3cc(OC)cc(C(F)(F)F)c3)[C@H](Cc3ccc(F)cc3)C2)CCO1.Cl.Cl
70.3 to 85.2 | COc1cc(C(=O)N2CCN(CCN3C[C@@H](C)O[C@@H](C)C3)C[C@H]2Cc2ccc(F)cc2)cc(C(F)(F)F)c1.Cl.Cl
168 to 195 | C[C@@H]1CN(CCN2CCN(C(=O)c3cc(C(F)(F)F)cc(C(F)(F)F)c3)[C@H](Cc3ccc4ccccc4c3)C2)C[C@H](C)O1.Cl.Cl
